The source made the active and inactive calls.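 How the source made its calls: active means over 20% inhibition at the single screening dose, then confirmed by dose response with half-maximal potency of 40 µM or better; inactive means the rest.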

The term IC50 denotes the point on the concentration scale where inhibition reaches its midpoint.

The target in the first test is mevalonate kinase (Streptococcus pneumoniae D39). The test is described as follows: S. pneumoniae MK inhibition retest, confirmation, biochemical, cuvette format, NADH absorbance 340 nm (AID 1000). The conditions noted are these: recombinant MK, PK/LDH coupled NADH absorbance 340 nm.
Take `O=C(c1ccc(-n2sc3ccccc3c2=O)cc1)N1CCCC1`: the IC50 was 198 nM.

On to `O=C(c1cccc(-n2sc3ccccc3c2=O)c1)N1CCCC1`, for which the IC50 is 230 nM.

Regarding `O=C(NCc1ccccc1)c1ccccc1-n1sc2ccccc2c1=O`, the IC50 was 242 nM.

With `CCN(CC)C(=O)c1cccc(-n2sc3ccccc3c2=O)c1`, the IC50 is 214 nM.

Regarding `O=c1c2ccccc2nc2n1CCC2NC(c1ccccc1)c1ccccc1` (configuration not stated), the 50% inhibitory concentration (IC50) was 17300 nM.

With `O=C(NCc1ccccc1)c1ccc(-n2sc3ccccc3c2=O)cc1`, the IC50 was 94 nM.

In the case of `O=C(c1ccccc1-n1sc2ccccc2c1=O)N1CCOCC1`, the IC50 is 1630 nM.

Turning to `O=C(NCc1ccccc1)c1cccc(-n2sc3ccccc3c2=O)c1`, the IC50 was 68 nM.

For `Cc1ccc(-n2sc3ccccc3c2=O)cc1C(=O)N1CCCCC1`, the IC50 was 306 nM.

In the case of `O=C(c1ccc(-n2sc3ccccc3c2=O)cc1)N1CCCCC1`, the IC50 is 246 nM.

For `O=C(NC1CC1)c1cccc(-n2sc3ccccc3c2=O)c1`, the IC50 is 197 nM.

Consider `CN(C)C(=O)c1ccc(-n2sc3ccccc3c2=O)cc1`, for which the IC50 is 389 nM.

As for `CCCN(CCC)C(=O)c1ccccc1-n1sc2ccccc2c1=O`, the IC50 was 795 nM.

In the case of `O=C(c1cccc(-n2sc3ccccc3c2=O)c1)N1CCOCC1`, the IC50 is 432 nM.

For the compound `O=C(c1cccc(-n2sc3ccccc3c2=O)c1)N1CCCCC1`, the IC50 was 244 nM.

Turning to `Cc1ccc(-n2sc3ccccc3c2=O)cc1S(=O)(=O)N1CCCC1`, the IC50 was 83 nM.

For `CCCNC(=O)c1ccccc1-n1sc2ccccc2c1=O`, the IC50 was 381 nM.

Consider `CCCN(CCC)C(=O)c1cccc(-n2sc3ccccc3c2=O)c1`, for which the IC50 was 304 nM.

`CN1CCN(C(=O)c2ccc(-n3sc4ccccc4c3=O)cc2)CC1`: the IC50 was 459 nM.

Take `CCN(CC)C(=O)c1ccccc1-n1sc2ccccc2c1=O`: the concentration for half-maximal inhibition (IC50) was 1010 nM.

In the case of `O=C(c1ccccc1-n1sc2ccccc2c1=O)N1CCCCC1`, the IC50 was 531 nM.

As for `CCCNC(=O)c1cccc(-n2sc3ccccc3c2=O)c1`, the IC50 was 277 nM.

Regarding `O=C(NC1CC1)c1ccc(-n2sc3ccccc3c2=O)cc1`, the concentration for half-maximal inhibition (IC50) was 171 nM.

For `CN(C)C(=O)c1ccccc1-n1sc2ccccc2c1=O`, the IC50 was 754 nM.

On to `O=C(NCC1CC1)c1ccc(-n2sc3ccccc3c2=O)cc1`, for which the IC50 was 176 nM.

On to `CCCNC(=O)c1ccc(-n2sc3ccccc3c2=O)cc1`, for which the IC50 is 134 nM.

As to `O=C(NCCN1CCCC1)c1ccc(-n2sc3ccccc3c2=O)cc1`, the IC50 is 304 nM.

As to `O=C(NC1CC1)c1ccccc1-n1sc2ccccc2c1=O`, the IC50 is 958 nM.

Turning to `O=C(NCc1ccco1)c1ccccc1-n1sc2ccccc2c1=O`, the IC50 is 579 nM.

Regarding `CCCN(CCC)C(=O)c1ccc(-n2sc3ccccc3c2=O)cc1`, the IC50 was 168 nM.

Take `O=C(NCc1ccco1)c1ccc(-n2sc3ccccc3c2=O)cc1`: the half-maximal inhibitory concentration (IC50) is 157 nM.

As to `O=C(c1ccccc1-n1sc2ccccc2c1=O)N1CCCC1`, the IC50 was 514 nM.

On to `CN(C)C(=O)c1cccc(-n2sc3ccccc3c2=O)c1`, for which the IC50 is 369 nM.

`CCN(CC)C(=O)c1ccc(-n2sc3ccccc3c2=O)cc1`: the IC50 was 230 nM.

`O=C(NCc1ccco1)c1cccc(-n2sc3ccccc3c2=O)c1`: the IC50 is 137 nM.

For the compound `O=C(c1ccc(-n2sc3ccccc3c2=O)cc1)N1CCOCC1`, the IC50 is 383 nM.

The same test, now with this note: recombinant MK, PK/LDH coupled NADH absorbance 340 nm; at 100 µM; stronger effect = higher value.
For the compound `COc1cccc(CCNC2CCn3c2nc2ccccc2c3=O)c1` (configuration not stated), the inhibition entry is “inactive”.

Regarding `O=c1c2cc(Cl)ccc2nc2n1CCC2`, the inhibition result was “inactive”.

With `O=c1c2ccccc2nc2n1CCC2SCc1ccccc1` (configuration not stated), the inhibition entry is “inactive”.

As for `O=c1c2ccccc2nc2n1CCC2(Br)Br`, the inhibition entry was “inactive”.

Take `Cc1cccc2c(=O)n3c(nc12)CCC3`: the inhibition entry is “inactive”.

For `Cc1ccc2nc3n(c(=O)c2c1)CCC3`, the inhibition result was “inactive”.

Regarding `COc1cccc2c(=O)n3c(nc12)CCC3`, the inhibition result is “inactive”.

In the case of `O=c1c2ccccc2nc2n1CCC2N1CCOCC1` (configuration not stated), the inhibition entry was “inactive”.

For `O=c1c2ccc(F)cc2nc2n1CCC2`, the inhibition result is “inactive”.

On to `O=c1c2cc(F)ccc2nc2n1CCC2`, for which the inhibition result was “inactive”.

On to `COc1ccc(CSC2CCn3c2nc2ccccc2c3=O)cc1` (configuration not stated), for which the inhibition result was “inactive”.

Turning to `O=c1c2c(F)cccc2nc2n1CCC2`, the inhibition entry is “inactive”.

Take `O=c1c2ccc(Cl)cc2nc2n1CCC2`: the inhibition result is “inactive”.

Regarding `COc1cccc2c(=O)n3c(nc12)/C(=C/c1ccc2c(c1)OCO2)CC3`, the inhibition entry was “inactive”.

`O=c1c2c(Cl)cccc2nc2n1CCC2`: the inhibition entry is “inactive”.

Regarding `O=c1c2ccccc2nc2n1CCC2NC1CC1` (configuration not stated), the inhibition result is “inactive”.

Consider `COc1cc2nc3n(c(=O)c2cc1OC)CCC3`, for which the inhibition result is “inactive”.

Take `O=c1c2cccc(Cl)c2nc2n1CCC2`: the inhibition result is “inactive”.

Consider `O=c1c2ccccc2nc2n1CCC2N1CCC(Cc2ccccc2)CC1` (configuration not stated), for which the inhibition result was “inactive”.

`O=c1c2ccccc2nc2n1CCC2SCCc1ccccc1` (configuration not stated): the inhibition result was “inactive”.

With `O=c1c2cc(Br)ccc2nc2n1CCC2`, the inhibition result is “inactive”.
